Experimental data: patent US10563272B2, “Compositions comprising Metarhizium fungi and use thereof as a pesticide” (Cotton Research and Development Corporation, priority 2015, dated 2020)

Experiments:
predatory beetles [1] = experiment: Rate trial on conventional cotton, Norwood 2012 (Example 10): predatory beetles; assay type: in vivo, Coleoptera (Coccinellidae, Melyridae); settings: 3 and 6 Mar. 2012; fipronil 62.5 mL/ha; P<0.05
Protocol: (§1) This trial was conducted on commercial conventional cotton crops on a farm at Norwood (29° 28'S, 149° 50′E) near Moree, NSW, from 28 Feb. to 21 Mar. 2012. The cotton used for the trial was at the early squaring stage, when it was attractive to green mirids (Khan et al. 2004).
(§2) The efficacy of the following treatments against green mirids and predatory insects were evaluated: • 1. 250 mL/ha DAT 511 spore in oil (1×10^7 spores/ml); • 2. 500 mL/ha DAT 511 spore in oil (1×10^7 spores/ml); • 3. 1 L/ha DAT 511 spore in oil (1×10^7 spores/ml); • 4. 62.5 mL/ha of Fipronil; and • 5. Unsprayed (negative control).
(§3) The treatment plots were arranged in a randomized complete block design with six replicates per treatment. Each replicated plot measured 40 m wide (40 rows) and 90 m long.
(§4) Foliar application of each treatment was made on 28 Feb. (for both green mirids and beneficial insects) and 13 Mar. […]
(§5) Pre-treatment counts of adult and nymph green mirids, predatory beetles, predatory bugs, predatory lacewings and spiders were made by visual inspection of whole cotton plants. Both adults and nymphs of beneficial insects were counted. Plants were assessed in randomly selected one-metre lengths of row of each treatment replicate (i.e. 6 m per treatment). […] Data are expressed as numbers of green mirid adults and nymphs counted per metre per treatment.

spiders [2] = experiment: Rate trial on conventional cotton, Norwood 2012 (Example 10): spiders; assay type: in vivo, Lycosa spp., Oxyopes spp., Salticidae spp., Araneus spp.; settings: P>0.05
Protocol: as §1, §2, §3, §4, §5

predatory beetles [3] = experiment: Rate trial on conventional cotton refuge crops, Undabri 2012 (Example 12): predatory beetles; assay type: in vivo, Coleoptera (Coccinellidae, Melyridae); settings: DAT 511 250 mL/ha, 500 mL/ha and 1.0 L/ha; fipronil 62.5 mL/ha
Protocol: (§6) This trial was conducted using commercial conventional cotton refuge crops at Undabri in Goondiwindi (28° 55'S, 150° 31′E) from 14 Feb. to 6 Mar. 2012.
as §2, with “mirids, green vegetable bugs” for “mirids”, “was assessed:” for “were evaluated:”, “fipronil;” for “of Fipronil;”
(§7) The plots were arranged in a randomized complete block design with three replicates per treatment. Each replicated plot measured 8 m (8 rows) wide and 250 m long.
(§8) Foliar applications of each treatment were made on 14 Feb. 2012 using a ground spray rig fitted with flat fan nozzles to achieve a droplet size of 200 μm. All insecticide formulations were water miscible. All treatments were applied using a spray volume of 100 L/ha. The untreated (negative control) plot was left unsprayed and the plot treated with synthetic insecticide received two applications similar to, and on the same date as, the plots treated with the fungus.
(§9) For each replicate, visual counts of adults and nymphs of green mirids, green vegetable bugs (GVB), apple dimpling bugs and predatory insects on whole cotton plants were made in a randomly selected 1 m length of row of cotton plants (i.e. 6 m per treatment). […]

predatory lacewings = experiment: Rate trial on conventional cotton refuge crops, Undabri 2012 (Example 12): predatory lacewings; assay type: in vivo, Chrysopa spp., Micromus tasmaniae; settings: DAT 511 250 mL/ha, 500 mL/ha and 1.0 L/ha; fipronil 62.5 mL/ha
Protocol: as §6
as §2, with “mirids, green vegetable bugs” for “mirids”, “was assessed:” for “were evaluated:”, “fipronil;” for “of Fipronil;”
as §7, §8, §9

predatory beetles [4] = experiment: Bollgard II cotton, Auscott-Togo 2012-13, Field 77 (Experiment 1): predatory beetles; assay type: in vivo, Coleoptera (Coccinellidae, Melyridae); settings: 62.5 mL/ha
Protocol: (§10) Two separate trials (Experiment 1 in Field 77; Experiment 2 in Field 63) were conducted in Bollgard II cotton crops on a commercial cotton farm at Auscott-Togo near Narrabri, New South Wales from 11 Feb. to 5 Mar. 2013 (Field 77) and 19 Feb. to 6 Mar. 2013 (Field 63). The cotton used for each of the trials was at the late squaring to pod setting and maturation stages which was fairly attractive to green mirids.
as §2, with “In both trials, the” for “The”, “was” for “were”, “fipronil;” for “Fipronil;”
as §3
(§11) Foliar application of each treatment was made on 28 Feb. (for both green mirids and beneficial insects) and 13 Mar. 2012 (for beneficial insects alone) using a ground spray rig fitted with flat fan nozzles to achieve a droplet size of 200 μm. The treatment was applied during the mornings when temperatures were between 20° C. and 28° C. The timing of treatment was based on the IPM Guidelines and recommendations by CottonLogic to use an economic threshold of 0.5 green mirids per metre (Deutscher and Wilson 1999; Khan et al. 2004).
(§12) Pre-treatment counts of green mirid adults and nymphs, predatory beetles, predatory bugs, predatory lacewings and spiders were made by visual inspection of whole cotton plants. Both adults and nymphs of beneficial insects were counted. Plants were assessed in randomly selected one-metre lengths of row of each replicate (i.e. 6 m per treatment). Post-treatment counts were made 3, 7, 14 and 21 days after treatment. Data are expressed as numbers of green mirid adults and nymphs counted per metre for each treatment.

spiders [5] = experiment: Bollgard II cotton, Auscott-Togo 2012-13, Field 77 (Experiment 1): spiders; assay type: in vivo, Lycosa spp., Oxyopes spp., Salticidae spp., Araneus spp.; settings: 62.5 mL/ha
Protocol: as §10
as §2, with “In both trials, the” for “The”, “was” for “were”, “fipronil;” for “Fipronil;”
as §3, §11, §12

N#Cc1nn(-c2c(Cl)cc(C(F)(F)F)cc2Cl)c(N)c1[S+]([O-])C(F)(F)F (centres unmarked) [fipronil]
number of predatory beetles per metre versus unsprayed and DAT 511 treated plots (predatory beetles [1]): significantly lower
number of spiders versus unsprayed (control) plots (spiders [2]): No significant difference
effect on number of predatory beetles per metre (predatory beetles [3]): identical
effect on number of predatory lacewings per metre (predatory lacewings): significantly lower
No. predatory beetles per meter (predatory beetles [4]; 3 DAT): 1.33 ± 0.33 a per meter
No. predatory beetles per meter (predatory beetles [4]; 7 DAT): 1.33 ± 0.33 a per meter
No. predatory beetles per meter (predatory beetles [4]; 14 DAT): 1.00 ± 0.58 a per meter
No. predatory beetles per meter (predatory beetles [4]; 21 DAT): 1.33 ± 0.33 b per meter
No. predatory beetles per meter (predatory beetles [4]; pre-spray counts): 3.68 ± 0.33 a per meter
No. spiders per meter (spiders [5]; 3 DAT): 5.00 ± 1.73 a per meter
No. spiders per meter (spiders [5]; 7 DAT): 5.33 ± 1.86 a per meter
No. spiders per meter (spiders [5]; 14 DAT): 9.33 ± 0.67a per meter
No. spiders per meter (spiders [5]; 21 DAT): 8.67 ± 0.88 a per meter
No. spiders per meter (spiders [5]; pre-spray counts): 11.67 ± 1.67a per meter
